Legend:
Format in all cases: cell-based
dengue virus (DENV) = assay: microbe, parasite or virus in culture; settings: Dengue virus, Vero, 120 h, read-out: Percent viral inhibition DENY
Marburg virus (MARV) = assay: organism not typed; settings: Vero, 72 h, read-out: Percent viral inhibition MARV
[1] = tested on: Chikungunya virus (CHIKV); assay: microbe, parasite or virus in culture; settings: Chikungunya virus, Vero, 48 h, read-out: Percent viral inhibition CHKV

NC1(CCO)CCN(c2ncc(Oc3cc(CN4CCC(CC(=O)O)CC4)cc(-c4cc(Cl)cc(Cl)c4)n3)cn2)CC1 [Example 124, 2-(1-((2-((2-(4-amino-4-(2-hydroxyethyl)piperidin-1-yl)pyrimidin-5-yl)oxy)-6-(3,5-dichlorophenyl)pyridin-4-yl)methyl)piperidin-4-yl) acetic acid]
inhibition at 1 µM (dengue virus (DENV)): 1.28% | inhibition at 1 µM (Marburg virus (MARV)): 63.8% | inhibition at 1 µM [1]: 21.2%

CN1CCCN(c2ncc(Oc3cc(CN4CCC(CC(=O)O)CC4)cc(-c4cc(Cl)cc(Cl)c4)n3)cn2)CC1 [Example 126, 2-(1-((2-(3,5-dichlorophenyl)-6-((2-(4-methyl-1,4-diazepan-1-yl)pyrimidin-5-yl)oxy)pyridin-4-yl)methyl)piperidin-4-yl)acetic acid]
inhibition at 1 µM (dengue virus (DENV)): 8.34% | inhibition at 1 µM (Marburg virus (MARV)): 38.5% | inhibition at 1 µM [1]: 23.6%

CC(CC(=O)O)C1CN(Cc2cc(Oc3cnc(N4CCN(C)CC4)nc3)nc(-c3cc(Cl)cc(Cl)c3)c2)C1 (stereo not drawn) [Example 127, 3-(1-((2-(3,5-dichlorophenyl)-6-((2-(4-methylpiperazin-1-yl)pyrimidin-5-yl)oxy)pyridin-4-yl)methyl)azetidin-3-yl)butanoic acid]
inhibition at 1 µM (dengue virus (DENV)): 0% | inhibition at 1 µM (Marburg virus (MARV)): 52.1% | inhibition at 1 µM [1]: 26%

CN1CCN(c2ncc(Oc3cc(CN4CCC(OCC(=O)O)C4)cc(-c4cc(Cl)cc(Cl)c4)n3)cn2)CC1 (stereo not drawn) [Example 128, 2-((1-((2-(3,5-dichlorophenyl)-6-((2-(4-methylpiperazin-1-yl)pyrimidin-5-yl)oxy)pyridin-4-yl)methyl)pyrrolidin-3-yl)oxy)acetic acid]
inhibition at 1 µM (dengue virus (DENV)): 7.97% | inhibition at 1 µM (Marburg virus (MARV)): 51.4% | inhibition at 1 µM [1]: 3.67%

CN1CCN(c2ncc(Oc3cc(CN4CC5CC(CC(=O)O)CC5C4)cc(-c4cc(Cl)cc(Cl)c4)n3)cn2)CC1 (stereo not drawn) [Example 129, 2-(2-((2-(3,5-dichlorophenyl)-6-((2-(4-methylpiperazin-1-yl)pyrimidin-5-yl)oxy)pyridin-4-yl)methyl)octahydrocyclopenta[c]pyrrol-5-yl)acetic acid]
inhibition at 1 µM (dengue virus (DENV)): 38.5% | inhibition at 1 µM (Marburg virus (MARV)): 29.8% | inhibition at 1 µM [1]: 23.6%

CN1CCN(c2ncc(Oc3cc(CN4CCC(CCC(=O)O)CC4)cc(-c4cc(Cl)cc(Cl)c4)n3)cn2)CC1 [Example 130, 3-(1-((2-(3,5-dichlorophenyl)-6-((2-(4-methylpiperazin-1-yl)pyrimidin-5-yl)oxy)pyridin-4-yl)methyl)piperidin-4-yl)propanoic acid]
inhibition at 1 µM (dengue virus (DENV)): 33% | inhibition at 1 µM (Marburg virus (MARV)): 33.3% | inhibition at 1 µM [1]: 28.4%

CC(CC1CCN(Cc2cc(Oc3cnc(N4CCN(C)CC4)nc3)nc(-c3cc(Cl)cc(Cl)c3)c2)CC1)C(=O)O (stereo not drawn) [Example 131, 3-(1-((2-(3,5-dichlorophenyl)-6-((2-(4-methylpiperazin-1-yl)pyrimidin-5-yl)oxy)pyridin-4-yl)methyl)piperidin-4-yl)-2-methylpropanoic acid]
inhibition at 1 µM (dengue virus (DENV)): 20.7% | inhibition at 1 µM (Marburg virus (MARV)): 52.4% | inhibition at 1 µM [1]: 3.11%

O=C(O)CC1CCN(Cc2cc(Oc3cnc(N4CCCNCC4)nc3)nc(-c3cc(Cl)cc(Cl)c3)c2)CC1 [Example 132, 2-(1-((2-((2-(1,4-diazepan-1-yl)pyrimidin-5-yl)oxy)-6-(3,5-dichlorophenyl)pyridin-4-yl)methyl)piperidin-4-yl) acetic acid]
inhibition at 1 µM (dengue virus (DENV)): 32.8% | inhibition at 1 µM (Marburg virus (MARV)): 46.8% | inhibition at 1 µM [1]: 35.2%

CN1CC2CN(c3ncc(Oc4cc(CN5CCC(CC(=O)O)CC5)cc(-c5cc(Cl)cc(Cl)c5)n4)cn3)CC2C1 (stereo not drawn) [Example 133, 2-(1-((2-(3,5-dichlorophenyl)-6-((2-(5-methylhexahydropyrrolo[3,4-c]pyrrol-2(1H)-yl)pyrimidin-5-yl)oxy)pyridin-4-yl)methyl)piperidin-4-yl)acetic acid]
inhibition at 1 µM (dengue virus (DENV)): 47.8% | inhibition at 1 µM (Marburg virus (MARV)): 54% | inhibition at 1 µM [1]: 43.4%

From patent US20230011571A1, “SMALL MOLECULE FURIN INHIBITORS FOR TREATING INFECTIOUS DISEASES” (BP Asset V, Inc., priority 2019, published 2023)
